From article PMC7503767, “Alkoxyamines Designed as Potential Drugs against Plasmodium and Schistosoma Parasites” (Molecules, 2020)
Read-outs that look alike come from different tables or passages of the source. Marks after values point to notes of the source that are not given here.

Legend:
[1] = system: Adult S. mansoni; experiment: In vitro antischistosomal activity on adult worms; assay type: cell-based, Schistosoma mansoni; settings: for Time for the death of 100% worms / S. mansoni Mean Survival Time: adult S. mansoni, observation up to 8 h; for Time for the death of 100% worms / Mean (±SD) survival time – Adult S. mansoni: 100 µg/mL; for S. mansoni Mean Survival Time: single dose 100 µg/mL; for Mean (±SD) survival time – Adult S. mansoni: observation up to 8 h (Table S1)
Outline: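 NMRI-strain adult worms, perfused from hamsters 42–47 days post-infection, held in RPMI 1640 (25 mM Hepes) with Tween 80/DMSO vehicle at 37 °C, 5% CO2 and exposed to 100 µg/mL drug, in duplicate. Moving worms counted hourly up to 8 h; no contraction over 30 s scored dead. Mean survival time from Kaplan–Meier analysis.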

[2] = system: P. falciparum F32-TEM (artemisinin-sensitive strain); experiment: Standard chemosensitivity assay (SYBR Green I), F32-TEM; assay type: cell-based, Plasmodium falciparum; settings: Plasmodium falciparum
Method: (§1) F32-ART5, an artemisinin-resistant strain and F32-TEM, an artemisinin-sensitive strain, were obtained from the parental clone F32-Tanzania, respectively under regular drug pressure cycles of increasing artemisinin concentrations for 5 years and without any artemisinin pressure. After these drug pressure cycles allowing selection of the F32-ART5 strain, regular drug pressures were performed to maintain its phenotype. […] Briefly, parasites were cultured in RPMI 1640 (Fisher Scientific, Waltham, Illkirch-Graffenstaden, France) supplemented with 5% type AB human serum (Etablissement français du Sang, Toulouse, France) and adjusted at a parasitemia of 1% and 2% hematocrit with type O human at 37 °C and 5% CO2. Parasite development was daily monitored by Giemsa staining.
(§2) Briefly, for the determination of IC50 values, the chemosensitivity assay was carried out in 96-well culture plates on D-sorbitol ring-stage synchronized parasites and antiplasmodial activities were evaluated using the SYBR Green I method. Drug testing was performed in triplicates in a dose range of 5 to 7 concentrations. […] Parasites were left to proliferate with the given compounds for 48 h at 37 °C and 5% CO2. After this period, pellets were washed 3 times in sterile PBS prior to putting the plates at −20 °C overnight to lyse all red blood cells. The following day, the plates were thawed at room temperature, 100 µL of each well was transferred into a black 96-well plate to which another 100 µL of 2× PBS-diluted SYBR Green I (Sigma-Aldrich) was added and left to incubate for 2 h at room temperature prior to reading the plates on BioTek FL× 800 Microplate Fluorescence Reader (λexcitation = 485 nm, λemission = 528 nm).
(§3) IC50 values were determined using GraphPad Prism by drawing the curve % inhibition vs. [Drug] and using a four-parameter dose–response curve with the following equation: Y=Bottom+ Top−Bottom/1+x^Hill Slope/IC50Hill Slope

[3] = system: P. falciparum F32-ART5 (artemisinin-resistant strain); experiment: Standard chemosensitivity assay (SYBR Green I), F32-ART5; assay type: cell-based, Plasmodium falciparum; settings: Plasmodium falciparum, F32, 48 h, read-out: P. falciparum Strains Mean IC50, F32-ART5, 48 h; ^1 n = 1, ^2 n = 2
Method: as §1, §2, §3

[4] = system: P. falciparum chloroquine-resistant strain FcB1-Columbia; experiment: Antiplasmodial screen at 10 µM and chemosensitivity assay (SYBR Green I), FcB1-Columbia; assay type: cell-based, Plasmodium falciparum
[5] = Cytotoxicity assay (MTT); settings: African green monkey
Method: (§4) Vero cells were cultured in MEM (Dutscher, Brumath, France) supplemented with 10% fetal bovine serum, 1× non-essential amino acids, 100 U/mL, 100 µg/mL penicillin/streptomycin, and 2 mM L-glutamine at 37 °C in a humidified 5% CO2 atmosphere. […] At this time, each well was microscope-examined for detection of possible precipitate formation prior to remove the supernatant by flicking the plate. 100 µL of a 0.5 mg/mL PBS-dissolved MTT tetrazolium (stock solution at 5 mg/mL) was then added to each well [48]. The plates were then incubated for 1 h at 37 °C and 5% CO2 prior to removing the supernatant and adding 100 µL of DMSO. Plates were gently shaken to dissolve formazan crystals resulting from the MTT tetrazolium reduction by living cells and read at 570 nm with BioTek µQuant Microplate Spectrophotometer.

[6] = system: Vero cells; experiment: Cytotoxicity assay (MTT); settings: ratio cytotoxicity (Vero)/activity on Plasmodium
Method: as §4

[7] = Homolysis of the NO–C bond measured by EPR
Method: Homolysis rate constants kd’ were measured by EPR and estimated using Equation (1) as reported many times in the literature. Further, Ea and kd were estimated using Equation (2). (1) ln([nitroxide]∞−[nitroxide]t/[nitroxide]∞)=−kd·t (2) Ea=−RT ln([…] kd′ )

[8] = parameters: method as in PMID 23051106, doi:10.1039/c2py20447a; settings: cited from earlier work
[9] = system: P. falciparum F32-ART5 (artemisinin-resistant); experiment: Recrudescence assay, F32-ART5; assay type: cell-based, Plasmodium falciparum; settings: artemisinin 18 µM, (RS/SR)-2F 5 µM; for Median (Range) Recrudescence Time, F32-ART5: 48 h treatment, followed 30 days
Method: (§5) The lead compound, (RS/SR)-2F, was tested in a recrudescence assay, to assess cross-resistance with artemisinin, according to Ménard et al.. Briefly, F32-TEM and F32-ART5 parasites were synchronized at ring-stage by D-sorbitol treatment prior to treating them with the drug of interest for 48 h, then washed and allowed to grow in drug-free medium. Parasitemia was monitored every other day for 30 days to determine the day when parasite cultures reached the t0 initial parasitemia. […] Artemisinin was used as control to confirm differences in recrudescence times between both strains. Three independent experiments were performed for (RS/SR)-2F and artemisinin tested in parallel.

[10] = system: P. falciparum F32-TEM (artemisinin-sensitive); experiment: Recrudescence assay, F32-TEM; assay type: cell-based, Plasmodium falciparum; settings: 48 h treatment; artemisinin 18 µM, (RS/SR)-2F 5 µM; followed 30 days
Method: as §5

[11] = F32, 48 h, read-out: P. falciparum Strains Mean IC50, F32-TEM, 48 h, ^1 n = 1, ^2 n = 2
[12] = Plasmodium falciparum, FcB1-Columbia strain, read-out: IC50 on P. falciparum
[13] = Cytotoxicity Mean IC50, Vero cell lines, 48 h, MTT
[14] = Plasmodium falciparum, FCB1, read-out: IC50 on P. falciparum, FcB1-Columbia strain
[15] = read-out: IC50 on P. falciparum, FcB1-Columbia strain

## CC(ON1C(C)(C)CC(O)CC1(C)C)c1cc(-c2ccccn2)nc(-c2ccccn2)c1 (racemic) [(R/S)-8F, 1-(1-([2,2′:6′,2′′-Terpyridin]-4′-yl)ethoxy)-2,2,6,6-tetramethylpiperidin-4-ol]
[1]
  Time for the death of 100% worms: 5 h
  S. mansoni Mean Survival Time: 5.0 ± 0.0 h
[2]; [11]
  IC50: 1.3 µM
[2]; F32, read-out: IC50 on the F32 strains, F32-TEM and F32-ART5 taken together
  IC50: ~1 µM
[3]
  IC50: 1.1 µM
[4]; [12]
  IC50: 0.14 µM
[5]; Vero cells
  IC50 at 48 h: 0.7 ± 0.4 µM
[6]
  Selectivity Index: 0.5
[7]; t-BuPh
  activation energy Ea: 133.3 ^k kJ/mol
  re-estimated homolysis rate constant kd at 120 °C: 0.46 10^−3 s^−1
[7]; t-BuPh, 111 °C
  homolysis rate constant kd′: 1.9 10^−4s^−1
[7]; tert-butylbenzene, half-lifetime t1/2 at 37 °C, t-BuPh
  half-life: 941 days
[7]; tert-butylbenzene, t1/2 at 37 °C
  half-life: 913 days

## CCOP(=O)(OCC)[C@@H](N(O[C@H](C)c1ccncc1)C(C)(C)C)C(C)(C)C (relative stereo) [(RR/SS)-1a]
[1]
  Mean (±SD) survival time – Adult S. mansoni: > 8 h
  Time for the death of 100% worms: > 8 h
  S. mansoni Mean Survival Time: >8 h
[2]; [11]
  IC50: 15 µM
[3]
  IC50: 16 µM
[5]; [13]
  IC50 at 48 h: 17 ± 7 µM
[6]
  Selectivity Index: 1
[8]; aqueous medium
  T1/2 in vitro at 37 °C: 48 to 96 h
[8]; tert-butylbenzene
  T1/2 in vitro at 37 °C: 408 h

## CCOP(=O)(OCC)[C@@H](N(O[C@@H](C)c1ccncc1)C(C)(C)C)C(C)(C)C (relative stereo) [(RS/SR)-1a]
[1]
  S. mansoni Mean Survival Time: 1.2 ± 0.1 h
[2]; [11]
  IC50: 7.6 µM
[3]
  IC50: 11 µM
[4]; [14]
  IC50: 3.8 µM
[4]; [15]
  IC50: > 3 µM
[5]; [13]
  IC50 at 48 h: 28 ± 29 µM
[6]
  Selectivity Index: 3
[8]; aqueous medium
  T1/2 in vitro at 37 °C: 48 to 96 h
[8]; tert-butylbenzene
  T1/2 in vitro at 37 °C: 408 h

## CCOP(=O)(OCC)C(N(OC(C)c1cc(-c2ccccn2)nc(-c2ccccn2)c1)C(C)(C)CO)C(C)(C)C (stereo not drawn) [(RS/SR)-2F, Diethyl(1-((1-([2,2′:6′,2′′-terpyridin]-4′-yl)ethoxy)(1-hydroxy-2-methylpropan-2-yl)amino)-2,2-dimethylpropyl)phosphonate]
[1]
  S. mansoni Mean Survival Time: 2.1 ± 0.1 h
[2]; [11]
  IC50: 0.6 ± 0.1 µM
[3]
  IC50: 0.5 ± 0.1 µM
[4]; [15]
  IC50: 0.3 µM
[5]; [13]
  IC50 at 48 h: 0.8 ± 0.3 µM
[6]
  Selectivity Index: 1
[9]
  Median (Range) Recrudescence Time, F32-ART5: 16 (15–17) Days
[10]
  Median (Range) Recrudescence Time, F32-TEM: > 30 days
[7]; MeOH/water 1:1 pH = 7.4
  activation energy Ea: 118.2 kJ/mol
  re-estimated homolysis rate constant kd at 120 °C: 46.7 10^−3 s^−1
[7]; MeOH/water 1:1 pH = 7.4 (aqueous medium)
  half-lifetime t1/2 at 37 °C: 64.8 h
[7]; MeOH/water 1:1 pH = 7.4, 81 °C
  homolysis rate constant kd′: 8.7 10^−4s^−1
[7]; buffer, pH 7.4, half-lifetime t1/2 at 37 °C, MeOH/water 1:1 pH = 7.4 (aqueous medium)
  half-life: 2 to 4 days
[7]; half-lifetime t1/2 at 37 °C, t-BuPh
  half-life: 3 to 5 days
[7]; t-BuPh
  activation energy Ea: 119.7 kJ/mol
  half-lifetime t1/2 at 37 °C: 115 h
  re-estimated homolysis rate constant kd at 120 °C: 29.9 10^−3 s^−1
[7]; t-BuPh, 81 °C
  homolysis rate constant kd′: 5.3 10^−4s^−1

## CCOP(=O)(OCC)C(N(OC(C)c1cc(-c2ccccn2)nc(-c2ccccn2)c1)C(C)(C)C(=O)O)C(C)(C)C (stereo not drawn) [(RS/SR)-4F, 2-((1-([2,2′:6′,2′′-Terpyridin]-4′-yl)ethoxy)(1-(diethoxyphosphoryl)-2,2-dimethylpropyl)amino)-2-methylpropanoic acid]
[1]
  Time for the death of 100% worms: 7 h
  S. mansoni Mean Survival Time: 5.2 ± 0.2 h
[2]; [11]
  IC50: 2.9 µM
[3]
  IC50: 4.7 µM
[4]; [14]
  IC50: 2.9 µM
[5]; [13]
  IC50 at 48 h: 15 ± 5 µM
[6]
  Selectivity Index: 4

## CCOP(=O)(OCC)C(N(OC(C)c1cc(-c2ccccn2)nc(-c2ccccn2)c1)C(C)(C)C=O)C(C)(C)C (stereo not drawn) [(RS/SR)-7F, Diethyl(1-((1-([2,2′:6′,2′′-terpyridin]-4′-yl)ethoxy)(2-methyl-1-oxopropan-2-yl)amino)-2,2-dimethylpropyl)phosphonate]
[1]
  Time for the death of 100% worms: 3 h
  S. mansoni Mean Survival Time: 2.7 ± 0.1 h
[2]; [11]
  IC50: 1.3 µM
[3]
  IC50: 1.4 µM
[5]; [13]
  IC50 at 48 h: 0.9 ± 0.4 µM
[6]
  Selectivity Index: 0.6

## C[C@@H]1CC[C@H]2[C@@H](C)C(=O)O[C@@H]3O[C@@]4(C)CC[C@@H]1[C@]32OO4 [Artemisinin, reference compound]
[2]; [11]
  IC50: 0.02 ± 0.001 µM
[3]
  IC50: 0.02 ± 0.002 µM
[4]; [12]
  IC50: 0.04 ± 0.007 µM
[5]; Vero cells
  IC50 at 48 h: 160 ± 12 µM
[6]
  Selectivity Index: 8000
[9]
  Median (Range) Recrudescence Time, F32-ART5: 9 (7–11) Days
[9]; F32-TEM versus F32-ART5
  Mean ± SEM Difference of Recrudescence Time: > 16.3 ± 3.7 days
[10]
  Median (Range) Recrudescence Time, F32-TEM: > 30 (16→30) Days

## CCc1cc(-c2ccccn2)nc(-c2ccccn2)c1 [compound 22, 4′-ethyl terpyridine]
[1]
  Mean (±SD) survival time – Adult S. mansoni: > 8 h
  Time for the death of 100% worms: > 8 h
  S. mansoni Mean Survival Time: >8 h
[2]; [11]
  IC50: 0.24 µM
[3]
  IC50: 0.23 µM
[4]; [12]
  IC50: 0.91 ± 0.06 µM
[5]; Vero cells
  IC50 at 48 h: 5.3 ± 4.5 µM
[6]
  Selectivity Index: 22
